In ChEMBL document CHEMBL4251607, “Antagonists of the adenosine A2A receptor based on a 2-arylbenzoxazole scaffold: Investigation of the C5- and C7-positions to enhance affinity” (Eur J Med Chem, 2018):
≈ marks a conversion by molar mass, not a printed value. Each block holds one compound with its values, some of them ahead of it.

Assays:
[1] = molecular target: T1, Adenosine receptor A2a (Homo sapiens, UniProt P29274); experiment: Displacement of [3H]-ZM241385 from human adenosine A2A receptor expressed in HEK293 cell membranes after 1 hr by scintillation counting method
[2] = molecular target: T1, Adenosine receptor A2a; experiment: Displacement of [3H]-ZM241385 from human adenosine A2A receptor expressed in CHO cell membranes after 1 hr by TopCount microplate scintillation counting method
[3] = molecular target: T1, Adenosine receptor A2a; experiment: Antagonist activity at human adenosine A2A receptor expressed in HEK293 cell membranes assessed as inhibition of […]-induced [35S]GTPgammaS binding preincubated for 10 mins followed by […] addition by TopCount scintillation counting method; type: functional
[4] = system: SH-SY5Y; experiment: Cytotoxicity against human SH-SY5Y cells assessed as cell death after 72 hrs by MTT assay; type: cell-based
[5] = in vitro; settings: human
Description: Intrinsic clearance in human liver microsomes at 0.1 uM

[6] = Protein binding in human plasma at 10 uM after 4 hrs
[7] = physchem; settings: PBS, pH 7.4
[8] = Half life in human liver microsomes at 0.1 uM
[9] = Apparent permeability from basolateral to apical side in human Caco2 cells at 10 uM after 40 mins; settings: Caco-2
[10] = Apparent permeability from apical to basolateral side in human Caco2 cells at 10 uM after 40 mins; settings: Caco-2
[11] = molecular target: T1, Adenosine receptor A2a; experiment: Antagonist activity at adenosine A2A receptor (unknown origin)
[12] = system: SH-SY5Y; experiment: Cytotoxicity against human SH-SY5Y cells assessed as cell death at 10 uM after 72 hrs by MTT assay relative to control; type: cell-based
[13] = molecular target: T2, Adenosine receptor A3 (Homo sapiens) (UniProt P0DMS8); experiment: Displacement of [125I]ABMECA from human adenosine A3 receptor expressed in HEK293 cell membranes at 10 uM relative to control
T2 sequence (whole entry): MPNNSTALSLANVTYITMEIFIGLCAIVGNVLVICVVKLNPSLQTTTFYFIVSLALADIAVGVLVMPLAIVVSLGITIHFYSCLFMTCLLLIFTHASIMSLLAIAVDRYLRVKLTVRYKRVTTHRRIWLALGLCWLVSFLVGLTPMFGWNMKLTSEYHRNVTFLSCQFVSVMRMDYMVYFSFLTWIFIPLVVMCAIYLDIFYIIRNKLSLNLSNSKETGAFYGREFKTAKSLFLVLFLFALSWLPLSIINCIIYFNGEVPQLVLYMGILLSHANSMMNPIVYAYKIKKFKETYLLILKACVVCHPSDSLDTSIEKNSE

[14] = molecular target: T3, Adenosine receptor A2b (Homo sapiens) (UniProt P29275); experiment: Displacement of [3H]CPX from human adenosine A2B receptor expressed in HEK293 cell membranes at 10 uM relative to control
T3 sequence (whole entry): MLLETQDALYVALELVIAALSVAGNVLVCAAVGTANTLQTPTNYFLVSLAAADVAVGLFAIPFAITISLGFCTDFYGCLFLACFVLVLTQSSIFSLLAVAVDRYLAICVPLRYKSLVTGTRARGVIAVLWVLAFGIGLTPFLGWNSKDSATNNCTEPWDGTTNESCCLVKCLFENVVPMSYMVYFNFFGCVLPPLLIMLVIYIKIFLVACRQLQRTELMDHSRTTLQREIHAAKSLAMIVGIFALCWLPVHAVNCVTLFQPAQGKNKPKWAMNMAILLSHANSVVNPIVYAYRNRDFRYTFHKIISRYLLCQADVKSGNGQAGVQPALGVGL

[15] = molecular target: T4, Adenosine receptor A1 (Homo sapiens, UniProt P30542); experiment: Displacement of [3H]DPCPX from human adenosine A1 receptor expressed in CHO cell membranes
T4 sequence (P30542 whole entry): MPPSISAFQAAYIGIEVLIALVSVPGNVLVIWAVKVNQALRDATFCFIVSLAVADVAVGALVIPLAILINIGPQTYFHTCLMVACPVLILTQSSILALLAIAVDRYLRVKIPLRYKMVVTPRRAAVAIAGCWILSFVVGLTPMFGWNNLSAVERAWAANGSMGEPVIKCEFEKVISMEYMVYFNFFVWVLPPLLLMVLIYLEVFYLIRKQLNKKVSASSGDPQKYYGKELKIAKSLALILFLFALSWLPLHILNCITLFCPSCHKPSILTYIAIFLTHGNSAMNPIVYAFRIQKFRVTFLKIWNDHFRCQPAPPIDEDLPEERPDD

T1 sequence (P29274 whole entry): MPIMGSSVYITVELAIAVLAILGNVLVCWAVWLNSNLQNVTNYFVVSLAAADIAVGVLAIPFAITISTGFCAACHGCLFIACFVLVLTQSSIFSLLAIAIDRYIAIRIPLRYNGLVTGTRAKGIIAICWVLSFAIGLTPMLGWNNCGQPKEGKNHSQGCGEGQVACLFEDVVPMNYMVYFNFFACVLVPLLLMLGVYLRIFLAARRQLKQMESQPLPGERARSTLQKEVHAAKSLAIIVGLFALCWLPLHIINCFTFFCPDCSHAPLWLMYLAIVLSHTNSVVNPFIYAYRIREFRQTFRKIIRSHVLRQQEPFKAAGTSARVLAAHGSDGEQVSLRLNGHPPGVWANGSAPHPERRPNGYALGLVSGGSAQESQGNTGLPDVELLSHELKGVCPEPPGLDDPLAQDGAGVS

IC50 [3]: 486 nM
Ki [2]: 210 nM
SMILES: O=C(CN1CCCCC1)Nc1cc(-c2ccco2)c2oc(-c3ccco3)nc2c1

microsomal CLint at 0.1 µM ([5]; liver microsomes): 172 µL/min/mg
fraction unbound at 4 h, 10 µM [6]: 0.02
solubility at 24 h [7]: 165 µM (≈ 66.9 µg/mL)
half-life at 0.1 µM ([8]; liver microsomes): 41 min
Papp B→A at 40 min, 10 µM [9]: 1.2 ×10⁻⁶ cm/s
Papp A→B at 40 min, 10 µM [10]: 2.3 ×10⁻⁶ cm/s
Ki [2]: 81 nM
SMILES: O=C(CCN1CCCCC1)Nc1cc(-c2ccco2)c2oc(-c3ccco3)nc2c1
IC50 [4]: 9 µM

Ki [11]: 0.5 nM
SMILES: COCCOc1ccc(N2CCN(CCn3ncc4c3nc(N)n3nc(-c5ccco5)nc43)CC2)cc1 [PRELADENANT]

Ki [2]: > 10000 nM
SMILES: COc1ccc(-c2cc(NC(=O)CCN3CCc4ccccc4C3)cc3nc(-c4ccco4)oc23)cc1OC

microsomal CLint at 0.1 µM ([5]; microsomes): < 115 µL/min/mg
fraction unbound at 4 h, 10 µM [6]: 0.02
solubility at 24 h [7]: 173 µM (≈ 70.5 µg/mL)
half-life at 0.1 µM ([8]; microsomes): > 60 min
Papp B→A at 40 min, 10 µM [9]: 1.6 ×10⁻⁶ cm/s
Papp A→B at 40 min, 10 µM [10]: 11 ×10⁻⁶ cm/s
Ki [2]: 90 nM
SMILES: O=C(CCN1CCOCC1)Nc1cc(-c2ccco2)c2oc(-c3ccco3)nc2c1
IC50 [4]: 77 µM

Ki [2]: > 10000 nM
SMILES: CCOCCOc1ccc(N2CCN(CCC(=O)Nc3cc(-c4ccco4)c4oc(-c5ccco5)nc4c3)CC2)cc1

microsomal CLint at 0.1 µM ([5]; liver microsomes): < 115 µL/min/mg
fraction unbound at 4 h, 10 µM [6]: 0.001
solubility at 24 h [7]: 8 µM (≈ 3.63 µg/mL)
half-life at 0.1 µM ([8]; liver microsomes): > 60 min
Papp A→B at 40 min, 10 µM [10]: 0.2 ×10⁻⁶ cm/s
Ki [2]: 30 nM
SMILES: O=C(CCN1CCc2ccccc2C1)Nc1cc(-c2ccco2)c2oc(-c3ccco3)nc2c1
Activity [12]: 37%

Ki [2]: 98 nM
SMILES: O=C(CCCN1CCCCC1)Nc1cc(-c2ccco2)c2oc(-c3ccco3)nc2c1

Second part, the compound before the results:

SMILES: Nc1ccc2oc(-c3ccco3)nc2c1
Ki [1]: 10 µM
Ki [2]: 10000 nM

SMILES: O=C(CN1CCCCC1)Nc1ccc2oc(-c3ccco3)nc2c1
Activity [12]: 0%
Ki [1]: 1 µM
Ki [2]: 1000 nM

SMILES: COc1ccc(-c2cc(N)cc3nc(-c4ccco4)oc23)cc1OC
Ki [2]: 90 nM

SMILES: Nc1cc(-c2cccs2)c2oc(-c3ccco3)nc2c1
Ki [2]: 71 nM

SMILES: Nc1cc(-c2ccc(F)cc2)c2oc(-c3ccco3)nc2c1
Ki [2]: 438 nM

SMILES: Nc1cc(NC(=O)CN2CCCCC2)c2oc(-c3ccco3)nc2c1
Ki [2]: > 10000 nM

SMILES: Nc1cc(-c2ccccn2)c2oc(-c3ccco3)nc2c1
Ki [2]: 135 nM

SMILES: Nc1cc(NC(=O)CN2CCCCC2)cc2nc(-c3ccco3)oc12
IC50 [3]: 250 nM
Ki [2]: 480 nM

SMILES: Cc1ccc(-c2cc(N)cc3nc(-c4ccco4)oc23)cc1
Ki [2]: > 10000 nM

SMILES: Nc1cc(-c2ccc(C(F)(F)F)cc2)c2oc(-c3ccco3)nc2c1
Ki [2]: > 10000 nM

SMILES: Nc1cc(-c2ccco2)c2oc(-c3ccco3)nc2c1
IC50 [4]: 40 µM
IC50 [3]: 70.6 nM
microsomal CLint at 0.1 µM ([5]; liver microsomes): < 115 µL/min/mg
fraction unbound at 4 h, 10 µM [6]: 0.1
inhibition [13]: 90%
solubility at 24 h [7]: 31 µM (≈ 8.25 µg/mL)
inhibition [14]: 94%
half-life at 0.1 µM ([8]; liver microsomes): > 60 min
Ki [15]: 7.7 nM
Papp B→A at 40 min, 10 µM [9]: 37 ×10⁻⁶ cm/s
Papp A→B at 40 min, 10 µM [10]: 77 ×10⁻⁶ cm/s
Ki [2]: 40 nM

SMILES: Nc1cc(-c2ccccc2)c2oc(-c3ccco3)nc2c1
Ki [2]: 202 nM

SMILES: Nc1cc(N2CCOCC2)c2oc(-c3ccco3)nc2c1
Ki [2]: > 10000 nM
